The values that follow come from patent US20240383908A1, “SYNTHESIS AND APPLICATION OF PHOSPHATASE DEGRADER” (HINOVA PHARMACEUTICALS INC., priority 2021, published 2024).

A word on the DC50: it is the concentration giving 50% degradation.

This test concerns the target T1, SHP2 protein (Homo sapiens, UniProt Q06124).
T1 sequence (Q06124 1-593): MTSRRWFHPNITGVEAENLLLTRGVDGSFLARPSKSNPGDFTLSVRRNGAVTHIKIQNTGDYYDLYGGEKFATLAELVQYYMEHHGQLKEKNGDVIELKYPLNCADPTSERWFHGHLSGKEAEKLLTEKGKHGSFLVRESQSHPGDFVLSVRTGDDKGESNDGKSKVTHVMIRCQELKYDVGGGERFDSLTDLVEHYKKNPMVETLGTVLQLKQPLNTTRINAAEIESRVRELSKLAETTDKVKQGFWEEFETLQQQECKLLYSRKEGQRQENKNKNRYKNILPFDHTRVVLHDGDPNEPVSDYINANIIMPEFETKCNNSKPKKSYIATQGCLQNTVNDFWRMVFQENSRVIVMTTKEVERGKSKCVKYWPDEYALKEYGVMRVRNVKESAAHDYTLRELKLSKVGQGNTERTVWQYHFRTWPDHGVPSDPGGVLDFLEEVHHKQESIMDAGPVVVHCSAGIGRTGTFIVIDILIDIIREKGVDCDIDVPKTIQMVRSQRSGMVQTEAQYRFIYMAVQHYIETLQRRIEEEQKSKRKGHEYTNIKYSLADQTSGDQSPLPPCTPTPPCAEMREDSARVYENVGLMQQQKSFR
The test is described as follows: Degradation activity on SHP2 protein in MIA Paca-2 cells (Western blot, DC50). Format: cell-based. Also on record: endogenous in cells; host or cells: MIA Paca-2 cells. The following applies: read-out: Degradation activity for differenct cell lines MIA Paca-2 (DC50). As to the method: (1) MV-411 cells were cultured in the cell culture medium, and then well-growing cells were selected and inoculated in a 12-well plate, with 1 mL/well and 1×10^6 cells/well. The plate was incubated overnight in a 5% CO2 cell incubator at 37° C.
(2) 10 mM storage solution of each drug was prepared using dimethylsulfoxide (DMSO). The stock solution was diluted gradually with DMSO before use, and then 1 μL of the compound solution was added to the cell culture well (to ensure that the DMSO concentration in the culture system was […]), so that the final drug concentration is 100 nM, 10 nM, 3 nM, 1 nM, 0.3 nM, and 0.1 nM. Two wells were set for each concentration. The plate was gently shaken and mixed. Additionally, negative control wells (containing an equal amount of DMSO) and positive control wells were included.
(3) After 24 hours of cultivation, the cells were lysed using RIPA cell lysate, and the proteins were extracted. The protein concentration was measured using a BCA assay kit. 5× concentrated protein buffer was loaded, heated at 100° C. for 5 min, and then the sample was stored at −20° C.
(4) For each well, 30 μg of protein was loaded to polyacrylamide gel for electrophoresis.
(5) The protein was transferred from polyacrylamide gel to PVDF membrane, and sealed at room temperature with 5% skimmed milk for 1 h, which was then incubated with the primary antibodies (Anti-SHP2 rabbit mAb and Anti-GAPDH rabbit mAb) at 4° C. overnight. The membrane was washed three times with TBST solution, 10 minutes for each time. After that, the membrane was incubated with the secondary antibodies (horseradish peroxidase labeled goat anti-rabbit IgG) at room temperature for 2 h, and then washed three times with TBST solution, 10 minutes for each time, followed by exposure.
(6) The images were analyzed with Image J grayscale, and the degradation ratio of protein bands in the test group was calculated, based on the negative control group (DMSO) (100%).
(7) Using the Dose-response-inhibition equation in the data processing software GraphPad Prism 8, the DC50 value was obtained (which represents the drug concentration corresponding to 50% degradation of the target protein).
Using similar methods and different cell lines, the degradation activity of the compound according to the present invention on SHP2 protein of different cell lines was tested under suitable culture conditions.
A general note: A western blot detects proteins with antibodies after separation by electrophoresis.
As to `CC1(N)CCN(c2cnc(Sc3cccc(NC(=O)c4ccc(C5=CCC(N6CC=C(c7ccc(C(=O)N8CCN(c9ccc%10c(c9)CN(C9CCC(=O)NC9=O)C%10=O)CC8)nc7)CC6)CC5)cc4)c3)cn2)CC1` (centres unmarked) [Compound 308], the DC50 is under 100 nM. The result for `CC1(N)CCN(c2cnc(Sc3cccc(NC(=O)c4ccc(C5=CCC(N6CC=C(c7ccc(C(=O)NCc8ccc9c(c8)CN(C8CCC(=O)NC8=O)C9=O)nn7)CC6)CC5)cc4)c3)cn2)CC1` (centres unmarked) [Compound 309] reads under 100 nM; that for `CC1(N)CCN(c2cnc(Sc3cccc(NC(=O)C4CC(N5CCC(N6CC=C(c7ccc(C(=O)Nc8ccc9c(c8)CN(C8CCC(=O)NC8=O)C9=O)nn7)CC6)CC5)C4)c3)cn2)CC1` (centres unmarked) [Compound 310], under 100 nM. Consider `CC1(N)CCN(c2cnc(Sc3cccc(NC(=O)C4CC5(C4)CC(N4CC=C(c6ccc(C(=O)NCc7ccc8c(c7)CN(C7CCC(=O)NC7=O)C8=O)nn6)CC4)C5)c3)cn2)CC1` (centres unmarked) [Compound 311], for which the DC50 was over 1000 nM. In the case of `CC1(N)CCN(c2cnc(Sc3cccc(NC(=O)c4ccc(N5CCC(N6CC=C(c7ccc(C(=O)NCc8ccc9c(c8)CN(C8CCC(=O)NC8=O)C9=O)nc7)CC6)CC5)cc4)c3)cn2)CC1` (centres unmarked) [Compound 312], the DC50 was under 100 nM. For `CC1(N)CCN(c2cnc(Sc3cccc(NC(=O)c4ccc(N5CCC(N6CC=C(c7ccc(C(=O)Nc8ccc9c(c8)CN(C8CCC(=O)NC8=O)C9=O)nc7)CC6)CC5)cc4)c3)cn2)CC1` (centres unmarked) [Compound 313], the DC50 was under 100 nM. For `CC1(N)CCN(c2cnc(Sc3cccc(NC(=O)c4ccc(N5CCC(N6CC=C(c7ccc(C(=O)NCc8ccc9c(c8)CN(C8CCC(=O)NC8=O)C9=O)nc7)CC6)CC5)nc4)c3)cn2)CC1` (centres unmarked) [Compound 324] the value was under 100 nM. Regarding `CC1(N)CCN(c2cnc(Sc3cccc(NC(=O)c4ccc(N5CCC(N6CC=C(c7ccc(C(=O)Nc8ccc9c(c8)CN(C8CCC(=O)NC8=O)C9=O)nc7)CC6)CC5)nc4)c3)cn2)CC1` (centres unmarked) [Compound 325], the 50% degradation concentration (DC50) was under 100 nM. On to `CC1(N)CCN(c2cnc(Sc3cccc(NC(=O)c4ccc(N5CCC(N6CC=C(c7ccc(C(=O)NCc8ccc9c(c8)CN(C8CCC(=O)NC8=O)C9=O)nn7)CC6)CC5)nc4)c3)cn2)CC1` (centres unmarked) [Compound 326], for which the DC50 is under 100 nM. For `CC1(N)CCN(c2cnc(Sc3cccc(NC(=O)c4ccc(N5CCC(N6CC=C(c7ccc(C(=O)Nc8ccc9c(c8)CN(C8CCC(=O)NC8=O)C9=O)nn7)CC6)CC5)nc4)c3)cn2)CC1` (centres unmarked) [Compound 327] the value was under 100 nM; for `C[C@@H]1OCC2(CCN(c3cnc(Sc4cccc(NC(=O)c5ccc(N6CCC(N7CC=C(c8ccc(C(=O)NCc9ccc%10c(c9)CN(C9CCC(=O)NC9=O)C%10=O)nn8)CC7)CC6)cc5)c4)cn3)CC2)[C@@H]1N` (some centres unmarked) [Compound 328], under 100 nM; for `CC1(N)CCN(c2cnc(Sc3cccc(NC(=O)c4ccc(N5CCC(N6CC=C(c7ccc(C(=O)NCc8ccc9c(c8)CN(C8CCC(=O)NC8=O)C9=O)nn7)CC6)CC5)c(F)c4)c3)cn2)CC1` (centres unmarked) [Compound 329], under 100 nM. `CC1(N)CCN(c2cnc(Sc3cccc(NC(=O)c4ccc(N5CCC(N6CC=C(c7ccc(C(=O)Nc8ccc9c(c8)CN(C8CCC(=O)NC8=O)C9=O)nn7)CC6)CC5)cc4)c3)cn2)CC1` (centres unmarked) [Compound 330]: the DC50 was under 100 nM. For `CC1(N)CCN(c2cnc(Sc3cccc(NC(=O)C(C)(C)c4ccc(N5CCN(c6ccc(C(=O)NCc7ccc8c(c7)CN(C7CCC(=O)NC7=O)C8=O)nc6)CC5)cc4)c3)cn2)CC1` (centres unmarked) [Compound 331], the DC50 is over 1000 nM.

Turning to `CC1(N)CCN(c2cnc(Sc3cccc(NC(=O)C4(c5ccc(N6CCN(c7ccc(C(=O)NCc8ccc9c(c8)CN(C8CCC(=O)NC8=O)C9=O)nc7)CC6)cc5)CC4)c3)cn2)CC1` (centres unmarked) [Compound 332], the DC50 is over 1000 nM. Consider `CC1(N)CCN(c2cnc(Sc3cccc(N4CCC(C(=O)N5CCN(c6ccc7c(c6)CN(C6CCC(=O)NC6=O)C7=O)CC5)CC4)c3)cn2)CC1` (centres unmarked) [Compound 333], for which the DC50 is over 1000 nM.

Take `CC1(N)CCN(c2cnc(Sc3cccc(NC(=O)c4ccc(N5CCC(C(=O)N6CCN(c7ccc8c(c7)CN(C7CCC(=O)NC7=O)C8=O)CC6)CC5)c(F)c4)c3)cn2)CC1` (centres unmarked) [Compound 335]: the DC50 is over 1000 nM.

For `NC1(CO)CCN(c2cnc(Sc3cccc(NC(=O)c4ccc(N5CCC(N6CC=C(c7ccc(C(=O)NCc8ccc9c(c8)CN(C8CCC(=O)NC8=O)C9=O)nc7)CC6)CC5)cc4)c3)cn2)CC1` (centres unmarked) [Compound 336], the DC50 is under 100 nM. Turning to `NC1CCN(c2cnc(Sc3cccc(NC(=O)c4ccc(N5CCC(N6CC=C(c7ccc(C(=O)NCc8ccc9c(c8)CN(C8CCC(=O)NC8=O)C9=O)nc7)CC6)CC5)cc4)c3)cn2)CC1F` (centres unmarked) [Compound 337], the DC50 was under 100 nM. The result for `COc1nc(C2=CCN(C3CCN(c4ccc(C(=O)Nc5cccc(Sc6cnc(N7CCC(C)(N)CC7)cn6)c5)cc4)CC3)CC2)ccc1C(=O)NCc1ccc2c(c1)CN(C1CCC(=O)NC1=O)C2=O` (centres unmarked) [Compound 338] reads under 100 nM; that for `CC1(N)CCN(c2cnc(Sc3cccc(NC(=O)C4CCC(N5CCC(N6CC=C(c7ccc(C(=O)NCc8ccc9c(c8)CN(C8CCC(=O)NC8=O)C9=O)nn7)CC6)CC5)CC4)c3)cn2)CC1` (centres unmarked) [Compound 339], under 100 nM. For `CC1(N)CCN(c2cnc(Sc3cccc(NC(=O)c4cnc(N5CCC(N6CC=C(c7ccc(C(=O)NCc8ccc9c(c8)CN(C8CCC(=O)NC8=O)C9=O)nc7)CC6)CC5)o4)c3)cn2)CC1` (centres unmarked) [Compound 340] the value was over 1000 nM; for `CC1(N)CCN(c2cnc(Sc3cccc(N4CCC(CN5CCN(c6ccc7c(c6)CN(C6CCC(=O)NC6=O)C7=O)CC5)CC4)c3)cn2)CC1` (centres unmarked) [Compound 341], over 1000 nM. For `CC1(N)CCN(c2cnc(Sc3cccc(NC(=O)c4csc(N5CCC(N6CC=C(c7ccc(C(=O)NCc8ccc9c(c8)CN(C8CCC(=O)NC8=O)C9=O)nc7)CC6)CC5)n4)c3)cn2)CC1` (centres unmarked) [Compound 358] the value was over 1000 nM. With `CC1(N)CCN(c2cnc(Sc3cccc(NC(=O)c4ccc(N5CCC(N6CC=C(c7ncc(C(=O)NCc8ccc9c(c8)CN(C8CCC(=O)NC8=O)C9=O)cc7C(F)(F)F)CC6)CC5)cc4)c3)cn2)CC1` (centres unmarked) [Compound 359], the DC50 is under 100 nM. With `CC1(N)CCN(c2cnc(Sc3cccc(NC(=O)c4ccc(C5=CCC(N6CC=C(c7ccc(C(=O)NCc8ccc9c(c8)CN(C8CCC(=O)NC8=O)C9=O)nn7)CC6)CC5)cc4)c3)cn2)CC1` (centres unmarked) [Compound 368], the DC50 was under 100 nM.

Take `CC1(N)CCN(c2cnc(Sc3cccc(NC(=O)c4ccc(N5CCC(N6CCC(c7ccc(C(=O)NCc8ccc9c(c8)CN(C8CCC(=O)NC8=O)C9=O)nc7)CC6)CC5)cc4)c3)cn2)CC1` (centres unmarked) [Compound 372]: the DC50 was under 100 nM. In the case of `NC1CCN(c2cnc(Sc3cccc(NC(=O)c4ccc(N5CCC(N6CC=C(c7ccc(C(=O)NCc8ccc9c(c8)CN(C8CCC(=O)NC8=O)C9=O)nn7)CC6)CC5)cc4)c3)cn2)CC1F` (centres unmarked) [Compound 376], the DC50 was over 1000 nM. For the compound `CC1(N)CCN(c2cnc(Sc3cccc(NC(=O)c4ccc(N5CCC(N6CCN(c7ccc(C(=O)NCc8ccc9c(c8)CN(C8CCC(=O)NC8=O)C9=O)nn7)CC6)CC5)cc4)c3)cn2)CC1` (centres unmarked) [Compound 389], the DC50 is under 100 nM. Regarding `CC1(N)CCN(c2cnc(Sc3cccc(NC(=O)c4ccc(N5CCC(N6CCN(c7ccc(C(=O)NCc8ccc9c(c8)CN(C8CCC(=O)NC8=O)C9=O)nc7)CC6)CC5)cc4F)c3)cn2)CC1` (centres unmarked) [Compound 392], the DC50 was under 100 nM. For `CC1(N)CCN(c2cnc(Sc3cccc(NC(=O)c4ccc(N5CCC(N6CC=C(c7ccc(C(=O)NCc8ccc9c(c8)CN(C8CCC(=O)NC8=O)C9=O)nn7)CC6)C5)cc4)c3)cn2)CC1` (centres unmarked) [Compound 402], the DC50 is under 100 nM. Take `CC1(N)CCN(c2cnc(Sc3cccc(NC(=O)c4cc(N5CCC(N6CC=C(c7ccc(C(=O)NCc8ccc9c(c8)CN(C8CCC(=O)NC8=O)C9=O)nn7)CC6)CC5)cs4)c3)cn2)CC1` (centres unmarked) [Compound 404]: the DC50 was over 1000 nM.
